Measured values from patent publication US20170020838A1, “TREATMENT FOR RESPIRATORY DISEASE” (MUCOKINETICA LIMITED, priority 2014, published 2017).

Target: T1, Amiloride-sensitive sodium channels (ENaC) (Sus scrofa, UniProt A0A480QJ99+F1RPF1+I3LGX7)
T1 construct: placed inside the trachea in contact with the tracheal epithelium; from tissue; host or cells: ex vivo pig trachea (tracheal epithelium)
T1 sequence (A0A480QJ99 1-650): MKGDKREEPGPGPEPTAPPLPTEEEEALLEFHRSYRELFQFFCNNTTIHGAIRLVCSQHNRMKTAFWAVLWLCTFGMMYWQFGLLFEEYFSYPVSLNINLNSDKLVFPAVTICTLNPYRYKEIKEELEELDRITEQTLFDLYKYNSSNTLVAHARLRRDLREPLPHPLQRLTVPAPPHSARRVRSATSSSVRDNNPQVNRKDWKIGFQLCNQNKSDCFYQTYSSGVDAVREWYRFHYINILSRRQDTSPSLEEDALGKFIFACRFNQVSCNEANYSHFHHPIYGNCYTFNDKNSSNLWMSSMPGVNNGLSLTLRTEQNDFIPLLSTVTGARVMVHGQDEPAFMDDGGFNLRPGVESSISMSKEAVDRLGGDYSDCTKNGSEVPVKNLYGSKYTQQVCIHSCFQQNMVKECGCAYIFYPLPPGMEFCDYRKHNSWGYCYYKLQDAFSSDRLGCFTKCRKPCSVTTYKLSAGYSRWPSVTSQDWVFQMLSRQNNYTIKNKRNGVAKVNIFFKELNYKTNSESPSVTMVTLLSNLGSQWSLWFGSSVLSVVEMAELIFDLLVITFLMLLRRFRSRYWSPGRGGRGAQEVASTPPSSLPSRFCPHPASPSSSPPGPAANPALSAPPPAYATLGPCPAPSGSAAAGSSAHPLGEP
T1 sequence (I3LGX7 1-644): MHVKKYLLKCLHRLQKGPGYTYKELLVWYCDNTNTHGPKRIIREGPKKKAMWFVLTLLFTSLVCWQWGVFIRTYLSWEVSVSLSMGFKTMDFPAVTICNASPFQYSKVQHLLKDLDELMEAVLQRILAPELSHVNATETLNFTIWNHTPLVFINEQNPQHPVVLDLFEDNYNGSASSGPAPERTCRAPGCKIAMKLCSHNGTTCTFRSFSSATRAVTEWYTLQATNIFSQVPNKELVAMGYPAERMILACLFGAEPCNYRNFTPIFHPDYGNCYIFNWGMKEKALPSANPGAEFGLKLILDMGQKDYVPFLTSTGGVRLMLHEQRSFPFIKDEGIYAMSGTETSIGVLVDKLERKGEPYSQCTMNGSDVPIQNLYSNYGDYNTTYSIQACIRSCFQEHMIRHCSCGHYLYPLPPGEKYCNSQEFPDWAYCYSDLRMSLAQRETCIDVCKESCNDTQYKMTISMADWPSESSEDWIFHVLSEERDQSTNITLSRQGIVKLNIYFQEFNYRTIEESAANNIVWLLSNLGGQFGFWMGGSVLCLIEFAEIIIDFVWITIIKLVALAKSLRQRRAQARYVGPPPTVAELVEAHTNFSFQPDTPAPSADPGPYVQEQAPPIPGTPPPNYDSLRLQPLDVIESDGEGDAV
T1 sequence (F1RPF1 1-652): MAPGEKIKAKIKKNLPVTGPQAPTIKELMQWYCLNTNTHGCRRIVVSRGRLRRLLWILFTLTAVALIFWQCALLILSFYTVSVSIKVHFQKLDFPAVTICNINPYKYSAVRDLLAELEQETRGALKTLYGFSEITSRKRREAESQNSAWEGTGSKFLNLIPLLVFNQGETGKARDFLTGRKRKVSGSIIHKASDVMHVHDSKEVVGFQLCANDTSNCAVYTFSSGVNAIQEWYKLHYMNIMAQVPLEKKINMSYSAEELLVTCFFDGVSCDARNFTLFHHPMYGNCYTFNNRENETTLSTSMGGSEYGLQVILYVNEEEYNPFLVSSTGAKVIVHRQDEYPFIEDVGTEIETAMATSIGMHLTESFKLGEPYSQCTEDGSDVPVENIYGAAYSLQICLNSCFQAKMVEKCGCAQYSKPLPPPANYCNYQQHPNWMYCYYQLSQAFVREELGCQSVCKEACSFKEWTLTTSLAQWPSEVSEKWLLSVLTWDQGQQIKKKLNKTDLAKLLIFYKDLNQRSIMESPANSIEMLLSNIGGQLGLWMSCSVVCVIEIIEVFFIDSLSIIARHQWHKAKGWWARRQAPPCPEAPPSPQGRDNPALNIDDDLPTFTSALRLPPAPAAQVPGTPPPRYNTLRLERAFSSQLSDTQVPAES
Assay: Amiloride-sensitive ENaC-dependent tracheal PD, ex vivo pig trachea
Conditions: for AUC of amiloride-sensitive ENaC-dependent tracheal PD responses, analysis of variance: AUC normalised to average of first four peaks, Rx 3.10^−5M alone; for AUC of amiloride-sensitive ENaC-dependent tracheal PD responses, analysis of variance / baseline tracheal PD during perfusion of the agent / responses to 5 min amiloride perfusion during perfusion of the agent: +50 mM-NaCl, combinations with 10^−5 M Rx; for AUC of amiloride-sensitive ENaC-dependent tracheal PD responses, analysis of variance / responses to 5 min amiloride perfusion during perfusion of the agent: 100 mosM-mannitol; for baseline tracheal PD during perfusion of the agent / responses to 5 min amiloride perfusion during perfusion of the agent: perfused in BSS: Rx 3.10^−5M alone, 50 mM sodium gluconate, 0.1 mM-UTP
Method: (§1) FIG. 1 A description of the equipment used to measure electrical potential difference (PD) across the pig trachea ex vivo (FIG. 1A). Pig tracheas placed on a sloping radiator heated at 37° C. A reference electrode consisting of silicone tubing filled with Signa electrode cream was attached to the outer surface of the trachea. A double lumen recording electrode (FIG. 1B) was placed inside the trachea in contact with the tracheal epithelium. The inner tubing of the recording electrode was used to perfuse onto the surface of the trachea buffer solutions and buffer solutions containing drugs and agents. The outer part of the recording electrode was also filled with Signa electrode cream. The ends of the electrodes not in contact with the trachea were placed in Ringer buffer solution. Electrical contact to calomel half-cells in 3M-KCl solution was achieved by silicone tubing bridges filled with Signa electrode cream. The calomel half-cells were connected to a high impedance digital electrometer (Agilent U1252A). Digital PD values were recorded continuously every 1 second for the duration each study and were filed onto a PC.
as §1, with “Pig” for “FIG. 1 A description of the equipment used to measure electrical potential difference (PD) across the pig trachea ex vivo (FIG. 1A). Pig”, “were obtained from” for “placed on”, “local abattoir or Veterinary University. The lumen of each trachea was cleaned by gentle irrigation with BSS.” for “sloping radiator heated at 37° C.”, “trachea according to the diagram in FIG. 1A. Pig tracheas were placed on a sloping radiator heated at 37° C.” for “trachea.”, “duration of” for “duration”
During each study the amiloride-sensitive, ENaC-dependent component of tracheal PD was determined periodically by perfusion (at 1 ml/min) of buffer solution containing 3×10^−6 M amiloride onto the epithelial surface of the trachea for 5 min, followed by washout for 10 minutes with buffer solution without amiloride. Each response to amiloride was quantified by measuring the area under the curve (AUC) response (mV.min) to amiloride perfusion and washout.

| Structure (SMILES) | AUC of amiloride-sensitive ENaC-dependent tracheal PD responses, analysis of variance | down-regulation of amiloride-sensitive ENaC-dependent tracheal PD responses, dose series (doses 3.10^−8 M, 10^−7 M, 3.10^−7 M, 10^−6 M, 3.10^−6 M, and 10^−5 M, all doses) | baseline tracheal PD during perfusion of the agent | responses to 5 min amiloride perfusion during perfusion of the agent | time for tracheal PD to reach plateau depolarisation following initiation of amiloride perfusion (3×10^−6 M amiloride perfused 5 min in BSS at 1 ml/min, mean of 23 tracheas) | time for tracheal PD to return to baseline after initiation of washout (after 5 min perfusion of amiloride, washout with BSS) | responses to 5 min amiloride perfusion on final perfusion with BSS without the agent (washout 60 min with BSS) |
| --- | --- | --- | --- | --- | --- | --- | --- |
| N=C(N)Nc1ccc(C(=O)Oc2ccc3cc(C(=N)N)ccc3c2)cc1 [6-amidino-2-napthyl 4-guanidinobenzoate] | significant reduction (p<0.0001) | Significant down-regulation | depolarise | decrease |  |  |  |
| O=c1ccn([C@@H]2O[C@H](COP(=O)(O)OP(=O)(O)OP(=O)(O)O)[C@@H](O)[C@H]2O)c(=O)[nH]1 [UTP, uridine 5′-triphosphate] |  |  | partially depolarise | decrease |  |  |  |
| N=C(N)NC(=O)c1nc(Cl)c(N)nc1N [amiloride] |  |  |  |  | about 2 min | approximately 5 min |  |
| OC[C@@H](O)[C@@H](O)[C@H](O)[C@H](O)CO [hyperosmotic mannitol, mannitol] | significantly reduced |  |  | decrease |  |  | recover |
| O=C([O-])[C@H](O)[C@@H](O)[C@H](O)[C@H](O)CO.[Na+] [hyperosmotic sodium gluconate, sodium gluconate] |  |  | partially depolarise | decrease |  |  |  |
